Legend:
[1] = biological target: T1, CaV3.2 (Homo sapiens, UniProt O95180); experiment: whole-cell patch clamp, tsA-201 cells transiently expressing human CaV3.[…]; format: cell-based
T1 construct: gene CACNA1H; α1 subunit

[2] = biological target: T2, human CB2 receptor (Homo sapiens, UniProt P34972); experiment: [3H]CP55940 radioligand competition, membranes of HEK293 cells expressing human CB2; low-efficacy agonist in GTPγ[…] assay ([…] at […]); format: binding
T2 construct: gene CNR2

[3] = biological target: T3, CaV3.1 (Homo sapiens, UniProt O43497); experiment: whole-cell patch clamp, […] NMP-181, tsA-201 cells transiently expressing human CaV3.[…]; format: cell-based
T3 construct: gene CACNA1G; α1 subunit
T3 sequence (O43497 whole entry): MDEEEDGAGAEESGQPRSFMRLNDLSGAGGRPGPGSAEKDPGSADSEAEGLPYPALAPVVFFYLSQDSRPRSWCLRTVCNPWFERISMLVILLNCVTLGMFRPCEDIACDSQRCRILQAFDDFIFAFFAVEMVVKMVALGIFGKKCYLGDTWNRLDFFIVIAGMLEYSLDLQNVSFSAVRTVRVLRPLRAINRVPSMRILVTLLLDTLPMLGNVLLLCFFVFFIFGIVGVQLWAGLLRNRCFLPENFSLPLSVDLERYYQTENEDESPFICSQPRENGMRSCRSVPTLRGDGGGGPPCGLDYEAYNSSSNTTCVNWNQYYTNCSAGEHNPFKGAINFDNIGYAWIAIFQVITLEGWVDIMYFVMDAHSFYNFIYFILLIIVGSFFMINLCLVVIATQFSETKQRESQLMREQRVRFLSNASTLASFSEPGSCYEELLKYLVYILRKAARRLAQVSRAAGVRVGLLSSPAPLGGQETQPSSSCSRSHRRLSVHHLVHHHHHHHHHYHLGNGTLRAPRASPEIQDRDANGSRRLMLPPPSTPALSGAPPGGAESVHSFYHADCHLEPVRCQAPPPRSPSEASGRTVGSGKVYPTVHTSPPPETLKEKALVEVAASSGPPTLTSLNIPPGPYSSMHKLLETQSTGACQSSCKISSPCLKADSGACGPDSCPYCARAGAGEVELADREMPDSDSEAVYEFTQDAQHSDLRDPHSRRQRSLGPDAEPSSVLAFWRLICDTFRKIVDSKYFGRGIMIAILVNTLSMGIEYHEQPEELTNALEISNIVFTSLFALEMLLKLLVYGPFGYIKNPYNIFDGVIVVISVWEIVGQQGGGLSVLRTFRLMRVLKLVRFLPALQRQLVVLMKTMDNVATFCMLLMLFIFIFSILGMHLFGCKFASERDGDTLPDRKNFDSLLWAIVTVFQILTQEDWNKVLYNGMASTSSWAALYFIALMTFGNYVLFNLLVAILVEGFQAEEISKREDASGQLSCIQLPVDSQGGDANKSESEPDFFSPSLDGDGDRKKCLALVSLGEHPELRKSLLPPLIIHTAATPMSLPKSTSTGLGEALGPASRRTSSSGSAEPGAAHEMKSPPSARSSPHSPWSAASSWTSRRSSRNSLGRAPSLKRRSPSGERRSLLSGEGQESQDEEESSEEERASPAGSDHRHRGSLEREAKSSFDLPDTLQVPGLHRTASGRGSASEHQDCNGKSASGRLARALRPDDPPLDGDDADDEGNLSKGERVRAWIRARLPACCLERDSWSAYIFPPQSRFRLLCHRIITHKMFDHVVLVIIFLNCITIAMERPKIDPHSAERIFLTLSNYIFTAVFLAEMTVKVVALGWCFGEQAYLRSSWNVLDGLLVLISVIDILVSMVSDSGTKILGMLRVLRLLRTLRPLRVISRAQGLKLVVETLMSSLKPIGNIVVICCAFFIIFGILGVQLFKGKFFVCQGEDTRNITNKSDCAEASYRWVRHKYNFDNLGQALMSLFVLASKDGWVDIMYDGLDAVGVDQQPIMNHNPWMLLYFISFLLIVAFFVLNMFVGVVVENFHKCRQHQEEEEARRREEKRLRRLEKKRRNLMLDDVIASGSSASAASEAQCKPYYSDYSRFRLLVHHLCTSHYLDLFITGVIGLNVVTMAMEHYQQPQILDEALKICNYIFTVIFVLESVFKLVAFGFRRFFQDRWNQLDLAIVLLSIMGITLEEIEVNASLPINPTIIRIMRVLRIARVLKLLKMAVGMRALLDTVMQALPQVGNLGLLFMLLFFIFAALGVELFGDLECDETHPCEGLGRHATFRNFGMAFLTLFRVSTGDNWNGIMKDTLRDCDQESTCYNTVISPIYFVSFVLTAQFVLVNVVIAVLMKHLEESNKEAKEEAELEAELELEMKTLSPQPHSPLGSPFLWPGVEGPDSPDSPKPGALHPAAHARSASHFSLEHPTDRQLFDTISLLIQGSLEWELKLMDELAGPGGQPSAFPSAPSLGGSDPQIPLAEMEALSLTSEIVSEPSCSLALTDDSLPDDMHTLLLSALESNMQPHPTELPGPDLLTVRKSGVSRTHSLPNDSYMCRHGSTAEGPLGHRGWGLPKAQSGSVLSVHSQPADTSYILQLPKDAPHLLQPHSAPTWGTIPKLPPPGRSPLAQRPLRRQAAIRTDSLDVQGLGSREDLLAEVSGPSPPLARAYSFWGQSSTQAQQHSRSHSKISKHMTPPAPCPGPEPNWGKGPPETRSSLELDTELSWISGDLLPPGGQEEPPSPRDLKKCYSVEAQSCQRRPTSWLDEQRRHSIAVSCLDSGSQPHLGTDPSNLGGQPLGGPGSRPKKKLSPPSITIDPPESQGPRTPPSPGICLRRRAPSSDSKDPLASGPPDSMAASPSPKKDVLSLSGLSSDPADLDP

T1 sequence (O95180 whole entry): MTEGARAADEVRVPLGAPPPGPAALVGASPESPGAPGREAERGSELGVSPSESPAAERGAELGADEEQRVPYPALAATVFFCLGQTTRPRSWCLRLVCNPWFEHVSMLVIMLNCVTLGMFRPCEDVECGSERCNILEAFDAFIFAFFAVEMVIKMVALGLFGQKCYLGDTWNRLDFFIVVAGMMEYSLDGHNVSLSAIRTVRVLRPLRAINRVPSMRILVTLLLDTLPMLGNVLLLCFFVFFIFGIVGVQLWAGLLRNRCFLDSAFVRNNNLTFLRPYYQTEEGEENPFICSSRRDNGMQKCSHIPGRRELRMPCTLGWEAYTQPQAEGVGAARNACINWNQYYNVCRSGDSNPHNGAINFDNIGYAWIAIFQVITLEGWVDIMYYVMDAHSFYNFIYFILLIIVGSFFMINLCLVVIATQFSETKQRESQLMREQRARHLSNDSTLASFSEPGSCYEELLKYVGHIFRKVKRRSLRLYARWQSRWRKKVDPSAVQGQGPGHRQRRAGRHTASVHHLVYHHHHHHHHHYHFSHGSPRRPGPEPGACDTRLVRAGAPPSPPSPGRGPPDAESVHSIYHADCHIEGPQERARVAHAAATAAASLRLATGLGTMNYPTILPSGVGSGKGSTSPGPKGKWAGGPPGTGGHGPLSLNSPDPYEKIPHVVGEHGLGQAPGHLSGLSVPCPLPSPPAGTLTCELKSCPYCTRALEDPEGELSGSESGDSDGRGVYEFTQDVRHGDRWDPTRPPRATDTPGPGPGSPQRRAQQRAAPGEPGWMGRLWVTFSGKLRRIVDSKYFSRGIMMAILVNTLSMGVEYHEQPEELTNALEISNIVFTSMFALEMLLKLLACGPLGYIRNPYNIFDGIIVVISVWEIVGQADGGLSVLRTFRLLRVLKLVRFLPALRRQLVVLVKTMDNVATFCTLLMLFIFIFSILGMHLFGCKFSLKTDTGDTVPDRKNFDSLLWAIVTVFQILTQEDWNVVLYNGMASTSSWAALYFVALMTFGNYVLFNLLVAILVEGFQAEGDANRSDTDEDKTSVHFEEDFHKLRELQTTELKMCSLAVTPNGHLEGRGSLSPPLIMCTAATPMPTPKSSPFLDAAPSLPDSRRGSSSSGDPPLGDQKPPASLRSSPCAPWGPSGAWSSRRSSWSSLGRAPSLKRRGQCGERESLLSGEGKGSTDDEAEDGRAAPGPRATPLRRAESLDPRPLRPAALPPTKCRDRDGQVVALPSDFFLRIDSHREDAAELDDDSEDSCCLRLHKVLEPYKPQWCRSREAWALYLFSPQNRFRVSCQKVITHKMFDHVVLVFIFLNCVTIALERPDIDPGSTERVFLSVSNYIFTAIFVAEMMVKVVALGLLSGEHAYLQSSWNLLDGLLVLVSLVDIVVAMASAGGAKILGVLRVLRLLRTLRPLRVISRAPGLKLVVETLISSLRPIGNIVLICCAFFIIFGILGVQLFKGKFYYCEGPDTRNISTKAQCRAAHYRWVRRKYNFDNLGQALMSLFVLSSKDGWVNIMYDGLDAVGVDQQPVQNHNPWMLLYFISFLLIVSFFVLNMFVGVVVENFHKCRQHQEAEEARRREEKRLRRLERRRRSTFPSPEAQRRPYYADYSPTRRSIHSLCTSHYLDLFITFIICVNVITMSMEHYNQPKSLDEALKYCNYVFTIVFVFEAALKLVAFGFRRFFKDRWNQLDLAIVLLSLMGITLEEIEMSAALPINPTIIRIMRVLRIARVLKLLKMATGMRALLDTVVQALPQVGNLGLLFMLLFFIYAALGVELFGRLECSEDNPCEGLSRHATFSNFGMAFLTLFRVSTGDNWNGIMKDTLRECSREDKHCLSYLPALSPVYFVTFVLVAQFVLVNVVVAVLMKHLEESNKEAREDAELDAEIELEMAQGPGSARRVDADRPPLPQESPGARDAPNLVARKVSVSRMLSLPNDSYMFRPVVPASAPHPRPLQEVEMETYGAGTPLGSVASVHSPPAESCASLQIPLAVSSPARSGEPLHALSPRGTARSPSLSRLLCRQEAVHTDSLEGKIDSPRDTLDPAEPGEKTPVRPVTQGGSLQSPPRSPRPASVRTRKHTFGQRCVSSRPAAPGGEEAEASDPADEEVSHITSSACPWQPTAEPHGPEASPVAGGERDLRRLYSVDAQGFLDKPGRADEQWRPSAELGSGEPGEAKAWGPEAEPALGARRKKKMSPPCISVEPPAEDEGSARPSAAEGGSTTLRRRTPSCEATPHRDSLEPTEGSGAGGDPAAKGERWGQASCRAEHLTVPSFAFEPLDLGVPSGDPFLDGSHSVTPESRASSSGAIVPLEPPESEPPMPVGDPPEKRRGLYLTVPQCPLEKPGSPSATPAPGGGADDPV
T2 sequence (P34972 whole entry): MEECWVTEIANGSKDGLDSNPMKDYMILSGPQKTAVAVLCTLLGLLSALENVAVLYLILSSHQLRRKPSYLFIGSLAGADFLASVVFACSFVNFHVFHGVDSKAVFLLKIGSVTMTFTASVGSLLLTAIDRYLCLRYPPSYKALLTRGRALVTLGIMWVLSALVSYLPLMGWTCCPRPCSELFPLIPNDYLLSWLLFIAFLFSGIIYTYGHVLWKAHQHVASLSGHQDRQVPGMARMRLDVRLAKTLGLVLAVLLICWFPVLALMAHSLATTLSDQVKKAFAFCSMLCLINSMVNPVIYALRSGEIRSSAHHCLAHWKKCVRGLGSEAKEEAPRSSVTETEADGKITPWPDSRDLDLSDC

CCCCCn1c2ccccc2c2cc(C(=O)OCCN(C)C)ccc21 [NMP-181]
IC50 [1]: 4.6 µM
Ki [2]: 0.123 ± 0.028 µM
whole-cell patch clamp, 10 μM NMP-181, tsA-201 cells transiently expressing huma [3]: the degree of inhibition was similar for all three CaV3 isoforms

Source: PMC3703287, “Analgesic effect of a mixed T-type channel inhibitor/CB2 receptor agonist” (Molecular Pain, 2013)
